Assay results published in US20220388964A1 (HiberCell, Inc., priority 2019, published 2022).

Each compound was assayed against GCN2 (Homo sapiens, UniProt Q9P2K8) (assay: TR-FRET biochemical assay for inhibition of GCN2 (Example 108, for Examples 73-105)).
GCN2, sequence (Q9P2K8 whole entry): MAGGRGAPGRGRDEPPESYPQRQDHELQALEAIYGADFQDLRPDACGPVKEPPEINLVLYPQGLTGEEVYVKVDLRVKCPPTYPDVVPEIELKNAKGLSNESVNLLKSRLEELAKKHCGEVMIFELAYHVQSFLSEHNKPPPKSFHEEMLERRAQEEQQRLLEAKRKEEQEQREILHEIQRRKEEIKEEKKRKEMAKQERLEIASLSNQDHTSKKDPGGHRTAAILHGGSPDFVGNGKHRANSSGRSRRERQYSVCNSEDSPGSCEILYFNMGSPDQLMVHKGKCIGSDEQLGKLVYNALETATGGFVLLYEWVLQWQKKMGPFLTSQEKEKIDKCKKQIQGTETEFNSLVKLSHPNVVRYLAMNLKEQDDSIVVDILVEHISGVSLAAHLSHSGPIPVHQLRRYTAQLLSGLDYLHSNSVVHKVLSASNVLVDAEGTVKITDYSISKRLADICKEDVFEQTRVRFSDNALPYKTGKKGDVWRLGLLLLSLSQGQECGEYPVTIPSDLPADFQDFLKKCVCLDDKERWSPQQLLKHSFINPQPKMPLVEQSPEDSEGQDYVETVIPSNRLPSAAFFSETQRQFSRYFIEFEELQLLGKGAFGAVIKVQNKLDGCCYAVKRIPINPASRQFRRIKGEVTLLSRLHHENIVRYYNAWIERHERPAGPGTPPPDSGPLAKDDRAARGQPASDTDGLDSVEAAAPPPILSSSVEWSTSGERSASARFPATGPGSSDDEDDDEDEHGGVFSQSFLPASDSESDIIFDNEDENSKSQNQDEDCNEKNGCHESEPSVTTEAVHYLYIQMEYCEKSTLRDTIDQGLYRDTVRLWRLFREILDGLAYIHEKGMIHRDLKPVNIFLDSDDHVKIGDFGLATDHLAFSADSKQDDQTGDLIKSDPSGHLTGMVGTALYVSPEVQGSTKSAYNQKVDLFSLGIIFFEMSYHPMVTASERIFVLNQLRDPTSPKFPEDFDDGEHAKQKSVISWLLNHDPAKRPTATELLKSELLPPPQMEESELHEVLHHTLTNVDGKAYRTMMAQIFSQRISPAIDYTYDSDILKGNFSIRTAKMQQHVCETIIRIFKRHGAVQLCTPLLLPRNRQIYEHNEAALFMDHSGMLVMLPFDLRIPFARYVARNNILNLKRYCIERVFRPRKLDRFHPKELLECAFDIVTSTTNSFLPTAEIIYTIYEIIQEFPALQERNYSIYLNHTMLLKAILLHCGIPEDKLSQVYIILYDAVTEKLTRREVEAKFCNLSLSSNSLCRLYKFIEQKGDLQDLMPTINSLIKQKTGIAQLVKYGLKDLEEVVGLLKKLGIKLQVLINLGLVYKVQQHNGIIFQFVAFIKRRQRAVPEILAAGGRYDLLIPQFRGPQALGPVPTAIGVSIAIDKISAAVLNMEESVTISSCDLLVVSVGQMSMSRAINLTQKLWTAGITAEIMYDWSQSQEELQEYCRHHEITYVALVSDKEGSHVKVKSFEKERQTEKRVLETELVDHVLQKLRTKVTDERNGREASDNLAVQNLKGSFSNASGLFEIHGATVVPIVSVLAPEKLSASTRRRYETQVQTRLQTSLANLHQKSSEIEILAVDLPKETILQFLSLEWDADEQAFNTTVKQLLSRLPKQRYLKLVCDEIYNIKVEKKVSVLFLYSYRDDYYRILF

Structure (SMILES) | IC50
COc1ncc(Cl)cc1S(=O)(=O)Nc1ccc(F)c(-c2ccc3c(C(=O)NCC4CCCNC4)n[nH]c3c2F)c1F (centres unmarked) [Example 93, 6-[3-(5-Chloro-2-methoxypyridine-3-sulfonamido)-2,6-difluorophenyl]-7-fluoro-N-(piperidin-3-ylmethyl)-1H-indazole-3-carboxamide] | < 500 nM
COc1ncc(Cl)cc1S(=O)(=O)Nc1ccc(F)c(-c2ccc3c(C(=O)NCC4CC4)n[nH]c3c2F)c1F [Example 85, 6-[3-(5-Chloro-2-methoxypyridine-3-sulfonamido)-2,6-difluorophenyl]-N-(cyclopropylmethyl)-7-fluoro-1H-indazole-3-carboxamide] | < 500 nM
CNC(=O)c1n[nH]c2c(F)c(-c3c(F)ccc(NS(=O)(=O)CC4CCCC4)c3F)ccc12 [Example 74, 6-[3-(cyclopentylmethanesulfonamido)-2,6-difluorophenyl]-7-fluoro-N-methyl-1H-indazole-3-carboxamide] | 2500 to 10000 nM

Further lines, results first:

IC50 | Structure (SMILES)
< 500 nM | COc1ncc(Cl)cc1S(=O)(=O)Nc1ccc(F)c(-c2ccc3c(C(=O)NC4CCCC(O)C4)n[nH]c3c2F)c1F (centres unmarked) [Example 80, 6-[3-(5-Chloro-2-methoxypyridine-3-sulfonamido)-2,6-difluorophenyl]-7-fluoro-N-(3-hydroxycyclohexyl)-1H-indazole-3-carboxamide]
< 500 nM | COc1ncc(Cl)cc1S(=O)(=O)Nc1ccc(F)c(-c2ccc3c(C(=O)NCCN4CCOCC4)n[nH]c3c2F)c1F [Example 86, 6-[3-(5-Chloro-2-methoxypyridine-3-sulfonamido)-2,6-difluorophenyl]-7-fluoro-N-[2-(morpholin-4-yl)ethyl]-1H-indazole-3-carboxamide]
